Measurements from patent US20220248732A1, “Saltiness-Perception Enhancing Compounds” (Frito-Lay North America, Inc., priority 2021, published 2022).

Tests used:
[1] = test system: panelists (saltiness intensity); test: Descriptive analysis of saltiness intensity of aqueous salt solutions (sample sets 1 and 2), 15-point scale; format: in vivo, human; conditions: for saltiness enhancement in salt solutions: 1x dosage level, 3.52 g NaCl/L (20% NaCl reduction), Tukey HSD alpha 0.05
Text: (§1) The terms “saltiness,” “saltiness intensity,” and “mean saltiness intensity” may refer to the saltiness intensity of a compound, a composition, and/or a food product determined by an individual tasting a sample of the compound, the composition, and/or the food product and rating its saltiness intensity using a designated scale, such as the 15-point saltiness scale described herein.
(§2) Next, the panelists conducted descriptive analysis to evaluate the saltiness intensity of the following four sample sets.
(1) 2 mL samples of aqueous salt solutions with a 20% reduction in NaCl (3.52 g NaCl/L H2O) and 40% reduction in NaCl (2.64 NaCl/L H2O), relative to 2 mL of a control sample having a simulated saltiness intensity of traditional potato chips (4.40 g NaCl/L H2O);
(2) 2 mL samples of pH 6.2-6.5 aqueous salt solutions at the 20% NaCl reduction level (3.52 g NaCl/L H2O) with the addition of individual ones of the identified saltiness-enhancing compounds, where the compound dosage was at the endogenous level of the analyzed unsalted potato chips (1×) and at three times the endogenous level of the potato chips (3×);
Panelist evaluation of sample set (1): Twelve panelists rated saltiness intensity using a 15-point scale, in duplicate. The saltiness references provided were 0 points (water), 2.5 points (0.2% NaCl), 5 points (0.35% NaCl), and 8.5 points (0.5% NaCl).
Panelist evaluation of sample set (2): Eight panelists rated saltiness intensity using a 15-point scale, in duplicate. The saltiness references provided were 0 points (water), 2.5 points (0.2% NaCl), 5 points (0.35% NaCl), and 8.5 points (0.5% NaCl). The sensory dosage concentrations of the saltiness-enhancing compounds of the samples of sample set (2) is shown below in Table 3.

[2] = test system: panelists (saltiness intensity); test: Descriptive analysis of saltiness intensity of topically coated potato chip samples (sample sets 3 and 4), 15-point scale; format: in vivo, human; conditions: for salt-enhancing activity on potato chips: applied topically (as mixture) to 20% and 40% salt reduced potato chips at the 1x dosage
Text: as §1, §2
(3) 1 g potato chip samples with 20% reduction in NaCl (12.3 g NaCl/kg) and 40% reductions in NaCl (9.2 g NaCl/kg), relative to traditional potato chips (15.4 g NaCl/kg); and
(4) 1 g potato chip samples at 20% and 40% salt reductions (relative to standard potato chips) with the addition of a mixture of the identified saltiness-enhancing compounds topically applied to potato chips at the endogenous level of the analyzed unsalted potato chips (1×).
Panelist evaluation of sample set (3): Twelve panelists rated saltiness intensity using a 15-point scale, in duplicate. The saltiness references provided were 0 points (water), 2.5 points (0.2% NaCl), 5 points (0.35% NaCl), and 8.5 points (0.5% NaCl).
Panelist evaluation of sample set (4): Nine panelists rated saltiness intensity using a 15-point scale, in duplicate. The saltiness references provided were 0 points (water), 2.5 points (0.2% NaCl), 5 points (0.35% NaCl), and 8.5 points (0.5% NaCl). […] Thus, application of one or more of the identified saltiness-perception enhancing compounds to a food product may enable a reduction of up to about 40 wt % of the amount of salt applied to a food product while eliminating or attenuating the concomitant reduction in saltiness that would otherwise occur.

## O=C(O)c1cc(O[C@@H]2OC[C@@H](O)[C@H](O)[C@H]2O)ccc1O [GAX, Gentisic acid 5-O-β-D xylopyranoside]
[1]
  saltiness enhancement in salt solutions: significant saltiness enhancement
[1]; 3.52 g NaCl + 0.44 mg GAX per L water (1x), pH 6.2-6.5, 15-point scale, eight panelists, Tukey group a (NaCl alone 5.0 b)
  Mean Saltiness Intensity: 6.0 a
[1]; 3.52 g NaCl + 1.32 mg GAX per L water (3x), pH 6.2-6.5, 15-point scale, eight panelists, Tukey group ab (NaCl alone 5.0 b)
  Mean Saltiness Intensity: 5.4 ab
[2]
  salt-enhancing activity on potato chips: salt-enhancing activity

## O=C(CCc1ccc(O)c(O)c1)NCCCNCCCCNCCCNC(=O)CCc1ccc(O)c(O)c1 [KA, Kukoamine A]
[1]
  saltiness enhancement in salt solutions: significant saltiness enhancement
[1]; 3.52 g NaCl + 1.57 mg KA per L water (1x), pH 6.2-6.5, 15-point scale, eight panelists, Tukey group a (NaCl alone 5.1 b)
  Mean Saltiness Intensity: 5.9 a
[1]; 3.52 g NaCl + 4.70 mg KA per L water (3x), pH 6.2-6.5, 15-point scale, eight panelists, Tukey group ab (NaCl alone 5.1 b)
  Mean Saltiness Intensity: 5.6 ab
[2]
  salt-enhancing activity on potato chips: salt-enhancing activity

## N[C@@H](Cc1c[nH]c2ccccc12)C(=O)O [L-Trp, L-tryptophan]
[1]; 3.52 g NaCl + 31.66 mg L-Trp per L water (1x), pH 6.2-6.5, 15-point scale, eight panelists, Tukey group a (NaCl alone 5.1 b)
  Mean Saltiness Intensity: 5.7 a
[1]; 3.52 g NaCl + 94.98 mg L-Trp per L water (3x), pH 6.2-6.5, 15-point scale, eight panelists, Tukey group a (NaCl alone 5.1 b)
  Mean Saltiness Intensity: 5.8 a
[2]
  salt-enhancing activity on potato chips: salt-enhancing activity

## [Cl-].[Na+] [NaCl, sodium chloride]
[1]; 2.64 g NaCl per L water, 40% reduced salt, 15-point scale, twelve panelists, Tukey group C
  Mean Saltiness Intensity: 4.4 C
[1]; 3.52 g NaCl per L water alone, control of GAX sample set, 15-point scale, eight panelists, Tukey group b
  Mean Saltiness Intensity: 5.0 b
[1]; 3.52 g NaCl per L water alone, control of KA sample set, 15-point scale, eight panelists, Tukey group b
  Mean Saltiness Intensity: 5.1 b
[1]; 3.52 g NaCl per L water alone, control of L-Trp sample set, 15-point scale, eight panelists, Tukey group b
  Mean Saltiness Intensity: 5.1 b
[1]; 3.52 g NaCl per L water, 20% reduced salt, 15-point scale, twelve panelists, Tukey group B
  Mean Saltiness Intensity: 5.4 B
[1]; 4.40 g NaCl per L water (control), 15-point scale, twelve panelists, Tukey group A
  Mean Saltiness Intensity: 7.2 A
[2]; 9.2 g/kg NaCl on potato chips alone, 40% salt reduction sample comparison, nine panelists, Tukey group c
  Mean Saltiness Intensity: 4.2 c
[2]; 12.3 g NaCl per Kg potato chips alone, 20% salt reduction sample comparison, nine panelists, Tukey group b
  Mean Saltiness Intensity: 5.0 b
[2]; 15.4 g NaCl (full salt) per Kg potato chips, 20% salt reduction sample comparison, nine panelists, Tukey group a
  Mean Saltiness Intensity: 6.2 a
[2]; 15.4 g NaCl (full salt) per Kg potato chips, 40% salt reduction sample comparison, nine panelists, Tukey group a
  Mean Saltiness Intensity: 6.2 a
[2]; topical coating 9.2 g NaCl per Kg potato chips, 40% reduced salt, 15-point scale, twelve panelists, Tukey group C
  Mean Saltiness Intensity: 4.2 C
[2]; topical coating 12.3 g NaCl per Kg potato chips, 20% reduced salt, 15-point scale, twelve panelists, Tukey group B
  Mean Saltiness Intensity: 5.3 B
[2]; topical coating 15.4 g NaCl per Kg potato chips (traditional), 15-point scale, twelve panelists, Tukey group A
  Mean Saltiness Intensity: 6.1 A
